Data on one compound can be found in US11357774B2, “Use of a quinoline sulfonyl compound for treatment of inflammation, inflammatory disorders, autoimmune disorders and malaria” (priority 2019, dated 2022).

The structures appear in SMILES notation.

For one data set, the system named is SW-982 cells. Description: CCK-8 cell viability, SW-982 cells. The data set is classed as cell-based. The conditions noted are these: SW-982, 6 hours with IL-1β 1 ng/mL; VR23 5 μM, HCQ 30 μM. On the procedure:
Dunnett's test was performed to assess if there are significant differences in cell viability compared to the non-treatment control group. The values presented are mean±SEM (n=3).
The CCK-8 assay was used to count viable cells under the various treatment conditions. Briefly, cells were cultured in 11 columns of a 96-well clustered plate, with 5,000 cells in 100 μL of culture medium per well, excluding one column for a media-only control. The plate was incubated overnight at 37° C. in the humidified conditions, followed by treatment with test compounds diluted in the culture medium (10 μL). Each column was treated with a different condition so that each treatment could have 8 repeats. […] The absorbance was measured using an automatic plate reader (Synergy H4 Hybrid Multi-Mode Microplate Reader, BioTek, Montreal, Canada) at 450 nm wavelength. The cell viability of each treatment sample was determined by using the following equation (%)=(Abstrtmt-Absmedia)/(AbsuT-Absmedia)*100, where Abstrtmt is the absorbance value of cells with the various treatment conditions; Absmedia is the absorbance of the well containing media only; AbsuT is the absorbance of the wells with untreated cells. […]

For data set [1], the system named is mouse lung tissues with ALI caused by LPS. Description: Histopathological analysis of lung tissues of mice with LPS-induced ALI. Format: in vivo. The conditions noted are these: LPS 0.4 mg/kg, 24 hours, VR23 30 mg/kg, DEX 4 mg/kg. On the procedure:
Six to eight week old female BALB/c mice strain 028 (Charles River Laboratories, QC, Canada) were fed regularly with laboratory chow and water upon arrival at the Laurentian University Animal Care Facility (Sudbury, ON, Canada). To determine a useful dose of LPS, three mice per group were treated for 24 hours with the following three different conditions: (i) no LPS, (ii) 0.25 mg of LPS per kg of body weight, and (iii) 0.50 mg of LPS per kg of body weight. The different concentrations of LPS were administered intranasally to the three BALB/c mice per concentration. After the animals were sacrificed, the bronchoalveolar lavage fluid (BALF) of each mouse was collected and analyzed for LPS-induced inflammatory responses. […] Experimental design involving the use of VR23 was based on a previous acute lung injury (ALI) instillation by Wei and Huang^26. Briefly, mice were divided into 5 groups, with 3-5 mice per group: no lung injury (i.e., no treat), sham treated, LPS-only, LPS+DEX, and LPS+VR23. […] Bronchoalveolar lavage fluid was collected and the number of cells infiltrated into the bronchoalveolar fluid were counted (FIG. 2). […]
At 24-hour post-induction of lung injury with LPS, lung tissues were embedded in the paraffin block, followed by slicing them into 10 μm sections using a microtome. […] For microscopy, at least 10 fields were analyzed for each sample. […]

The subject of a further data set is HFLS-RA cell migration. Description: Cell migration assay (matrigel invasion chamber), HFLS-RA. Format: cell-based, human. The conditions noted are these: 24 hours, 5 μM or 10 μM. On the procedure:
The values presented are the mean±SEM (n=2).
Cell migration assays were performed with Corning invasion chambers with Matrigel matrix (Fisher Scientific). The lower chamber contained compounds (e.g., VR23 or HCQ) and FBS as a chemo-attractant. The upper chamber was loaded with cells in FBS-free medium. The analysis of the trans-well inserts were carried out as described previously^24. After 24 hours of incubation, the trans-well inserts were removed, and then the remaining media and cells on the upper chamber were also removed from the top of the membrane with a cotton swab. The trans-well inserts were placed into wells containing 1 mL of 70% ethanol for 10 minutes to fix the cells. The residual ethanol was carefully removed with a cotton swab. Cells on the trans-well insert membrane were then air-dried at room temperature for 15 minutes. The trans-well insert containing cells were placed in 1 mL of 0.2% crystal violet for 10 minutes to stain. The excessive crystal violet was carefully removed from the membrane with a cotton swab. Subsequently, cells on the trans-well membrane were air-dried at room temperature prior to analysis under an inverted microscope. Images (10×) were captured at 5 different fields. The average number of cells that migrated through the membrane towards the chemo-attractant were determined. […]

Data set [2] deals with β2 subunit of the proteasome 20S catalytic unit (Homo sapiens, UniProt Q99436). The note with it: cited from earlier work.
In data set [3] the test system is cancer over non-cancer cells. The note with it: in vitro studies; cited from earlier work.
A further data set relates to mouse organs / tumor. The note with it: cited from earlier work.

Turning to `O=[N+]([O-])c1ccc(S(=O)(=O)N2CCN(c3ccnc4cc(Cl)ccc34)CC2)c([N+](=O)[O-])c1` [VR23, 7-chloro-4-(4-(2,4-dinitrophenylsulfonyl)piperazin-1-yl)quinoline], in the data set with SW-982 cells, the “cell viability (CCK-8)” value is recorded as “did not significantly differ from the untreated cells”. Further, the “alveolar inflammation caused by LPS (H & E histopathology)” value in data set [1] is “largely prevented”. For the same compound, the “cell migration promoted by 10% FBS” value with HFLS-RA cell migration is “completely prevents cell migration”. The proteasome inhibition result in data set [2] is reported as “strong proteasome inhibitor”. Also, in data set [3], the “selectivity of cell killing” value is listed as “preferentially kills cancer over non-cancer cells”. Besides, in the data set with mouse organs / tumor (animal-based studies), the anti-tumor activity entry was “strong anti-tumor activity” and the “toxicity to mouse organs” value was “without any notable toxic side effects to mouse organs”. Further, the “toxic side effects of paclitaxel in combination” value in the data set on mouse organs / tumor (used in combination with paclitaxel (Tax)) is “reduces toxic side effects caused by paclitaxel”.
